Assay results reported in patent US7977481B2, “Pyrimidinyl-thiophene kinase modulators” (SGX Pharmaceuticals, Inc., priority 2005, dated 2011).

Columns and labels:
HCT116 cells = experiment: 96-well XTT cell survival assay (AurA XTT); assay type: cell-based; settings: Homo sapiens, HCT-116, 72 hours
Experimental: HCT116 cells were maintained in McCoy's 5a Medium supplemented with 10% fetal bovine serum (FBS) 2 mM L-Glutamine and 100 units penicillin/100 μg streptomycin, at 37° C. in 5% CO2
Compounds were tested in the following assays in duplicate.
96-well XTT assay: Cells were grown in growth media containing various concentrations of compounds (duplicates) on a 96-well flat bottom plate for 72 hours at 37° C. in 5% CO2. The starting cell number was 5000 cells per well and volume was 120 μl. At the end of the 72-hour incubation, 40 μl of XTT labeling mixture (50:1 solution of sodium 3′-[1-(phenylaminocarbonyl)-3,4-tetrazolium]-bis(4-methoxy-6-nitro) benzene sulfonic acid hydrate and Electron-coupling reagent: PMS (N-methyl dibenzopyrazine methyl sulfate) were added to each well of the plate. After an additional 2-6 hours […] with a spectrophotometer.

[1] = target: T1, Autophosphorylated AurA kinase (Homo sapiens, UniProt O14965); experiment: AurA Luminescence-Based ATP Depletion Enzyme Assay; assay type: biochemical; settings: 10 μM ATP
T1 construct: made in house; host or cells: Sf9 insect cells
T1 sequence (O14965 1-403): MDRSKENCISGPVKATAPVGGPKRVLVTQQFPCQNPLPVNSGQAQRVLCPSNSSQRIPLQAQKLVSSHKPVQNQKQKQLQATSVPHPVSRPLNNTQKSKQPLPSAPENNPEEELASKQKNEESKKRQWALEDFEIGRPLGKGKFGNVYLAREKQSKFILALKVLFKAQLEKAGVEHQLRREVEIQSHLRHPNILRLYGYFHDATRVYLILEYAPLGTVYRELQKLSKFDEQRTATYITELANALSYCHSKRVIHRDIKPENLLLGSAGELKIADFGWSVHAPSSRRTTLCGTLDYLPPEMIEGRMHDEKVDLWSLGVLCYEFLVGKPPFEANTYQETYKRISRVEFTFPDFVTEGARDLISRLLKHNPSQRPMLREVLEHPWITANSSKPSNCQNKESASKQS
Experimental: AurA Luminescence-Based ATP Depletion Enzyme Assay
Materials: Kemptide peptide substrate=LRRASLG (Biopeptide, San Diego, Calif.), ATP (Sigma Cat#A-3377, FW=551), HEPES buffer, pH 7.5, 10% Brij 35 (Calbiochem Cat#203728), MgCl2, Staurosporine (Streptomyces sp. Sigma Cat#85660-1MG), white Costar 384-well flat-bottom plate (VWR Cat#29444-088), Autophosphorylated AurA kinase (see below), Kinase-Glo™ (Promega Cat#V6712).
Stock Solutions: 10 mM Kemptide peptide (7.72 mg/ml in water), stored at −20° C.; 100 mM HEPES buffer+0.015% Brij 35, pH 7.5 (5 ml 1M HEPES stock+75 μL 10% Brij 35+45 ml miliQH2O); 10 mM ATP (5.51 mg/ml in dH2O) stored at −20° C. (diluted 50 μl into total of 10 ml miliQH2O daily=50 μM ATP working stock); 100 mM MgCl2; 200 μM Staurosporine, 2× Kinase-Glo™ reagent (made fresh or stored at −20° C.).
AurA Autophosphorylation Reaction: ATP and MgCl2 were added to 1-5 mg/ml AurA at final concentrations of 10 mM and 100 mM, respectively. The autophosphorylation reaction was incubated at 21° C. for 2-3 h. The reaction was stopped by the addition of EDTA to a final concentration of 50 mM, and samples were flash frozen with liquid N2 and stored at −80° C.
Standard Assay Setup for 384-well format (20 μl kinase reaction, 40 μl detection reaction): 10 mM MgCl2; 0.2 mM Kemptide peptide; 1 μl test compound (in DMSO); 0.3 μg/ml Autophosphorylated AurA kinase; 10 μM ATP; 100 mM HEPES+0.015% Brij buffer. Positive controls contained DMSO with no test compound. Negative controls contained 5 μM staurosporine. The kinase reactions were initiated at time t=0 by the addition of ATP. Kinase reactions were incubated at 21° C. for 45 min, then 20 μl of Kinase-Glo™ reagent were added to each well to quench the kinase reaction and initiate the luminescence reaction. After a 20 min incubation at 21° C., the luminescence was detected in a plate-reading luminometer.
The Sf9 insect cell pellets (˜18 g) produced from 6 L of cultured cells expressing human Aurora-2 were resuspended in 50 mM Na Phosphate pH 8.0, 500 mM NaCl, 10% glycerol, 0.2% n-octyl-β-D-glucopyranoside (BOG) and 3 mM β-Mercaptoethanol (BME). One tablet of Roche Complete, EDTA-free protease inhibitor cocktail (Cat#1873580) and 85 units Benzonase (Novagen Cat#70746-3)) were added per 1 L of original culture. Pellets were resuspended in approximately 50 ml per 1 L of original culture and were then sonicated on ice with two 30-45 sec bursts (100% duty cycle). Debris was removed by centrifugation and the supernatant was passed through a 0.8 μm syringe filter before being loaded onto a 5 ml Ni^2+ HiTrap column (Pharmacia). The column was washed with 6 column volumes of 50 mM Na Phosphate pH 8.0, 500 mM NaCl, 10% glycerol, 3 mM BME. The protein was eluted using a linear gradient of the same buffer containing 500 mM Imidazole. The eluant (24 ml) was cleaved overnight at 4° C. in a buffer containing 50 mM Na Phosphate pH 8.0, 500 mM NaCl, 10% glycerol, 3 mM BME and 10,000 units of TEV (Invitrogen Cat#10127-017). The protein was passed over a second nickel affinity column as described above; the flow-through was collected. The cleaved protein fractions were combined and concentrated using spin concentrators. Further purification was done by gel filtration chromatography on a S75 sizing column in 50 mM Na Phosphate (pH 8.0), 250 mM NaCl, 1 mM EDTA, 0.1 mM AMP-PNP or ATP buffer, and 5 mM DTT. The cleanest fractions were combined and concentrated to approximately 8-11 mg/ml, and were either flash frozen in liquid nitrogen in 120 μl aliquots and stored at −80° C., or stored at 4° C.

| Structure (SMILES) | IC50 [1] | IC50 (HCT116 cells) |
| --- | --- | --- |
| CCC(=O)Nc1ccc(-c2ccnc(Nc3cccc(C)c3)n2)s1 | 100 to 500 nM | 1000 to 5000 nM |
| CN(C)C(=O)c1cccc(Nc2nccc(-c3ccc(Br)s3)n2)c1 | 100 to 500 nM |  |
| CN(C)C1CCN(c2cccc(Nc3nccc(-c4ccc(C(=O)NCc5ccco5)s4)n3)c2)C1 (stereo not shown) | 100 to 500 nM |  |
| CCN(CCC#N)S(=O)(=O)c1ccc(-c2ccnc(Nc3cccc(C(C)O)c3)n2)s1 (stereo not shown) | < 100 nM | 1000 to 5000 nM |
| CN(Cc1ccccc1)C(=O)c1ccc(-c2ccnc(Nc3ccc(CCO)cc3)n2)s1 | < 100 nM | 1000 to 5000 nM |
| Brc1ccc(-c2ccnc(Nc3cccc(CN4CCOCC4)c3)n2)s1 | > 500 nM |  |
| O=C(c1cccc(Nc2nccc(-c3ccc(Br)s3)n2)c1)N1CCN(CCO)CC1 | 100 to 500 nM | 1000 to 5000 nM |
| COc1ccc(Nc2nccc(-c3ccc(Br)s3)n2)cc1OC | < 100 nM |  |
| CC(O)c1cccc(Nc2nccc(-c3ccc(S(=O)(=O)Cc4ccccc4)s3)n2)c1 (stereo not shown) | 100 to 500 nM |  |
| C[C@@H](NC(=O)c1ccc(-c2ccnc(Nc3cccc(CN4CCC(O)CC4)c3)n2)s1)c1ccccc1 | < 100 nM | < 1000 nM |
| CC(O)c1cccc(Nc2nccc(-c3ccc(-c4ccncc4)s3)n2)c1 (stereo not shown) | > 500 nM |  |

More lines, main results first:

| IC50 [1] | Structure (SMILES) | IC50 (HCT116 cells) |
| --- | --- | --- |
| 100 to 500 nM | COc1ccc(Nc2nccc(-c3ccc(Br)s3)n2)cc1C(=O)N(C)C | 1000 to 5000 nM |
| 100 to 500 nM | CCN(CCC#N)C(=O)c1ccc(-c2ccnc(Nc3cccc(C(C)O)c3)n2)s1 (stereo not shown) | < 1000 nM |
| 100 to 500 nM | CCC1CCCCN1S(=O)(=O)c1ccc(-c2ccnc(Nc3cccc(C(C)O)c3)n2)s1 (stereo not shown) |  |
| 100 to 500 nM | CC(O)c1cccc(Nc2nccc(-c3ccc(-c4cccc(CC#N)c4)s3)n2)c1 (stereo not shown) |  |
| < 100 nM | CC(O)c1cccc(Nc2nccc(-c3ccc(S(=O)(=O)N(C)C)s3)n2)c1 (stereo not shown) | 1000 to 5000 nM |
| 100 to 500 nM | CC(O)c1cccc(Nc2nccc(-c3ccc(-c4cccnc4)s3)n2)c1 (stereo not shown) | 1000 to 5000 nM |
| < 100 nM | C[C@@H](NC(=O)c1ccc(-c2ccnc(Nc3cccc(CN4CCN(CCO)CC4)c3)n2)s1)c1ccccc1 | < 1000 nM |
| > 500 nM | OC1CCN(Cc2cccc(Nc3nccc(-c4ccc(CNc5ccccc5Cl)s4)n3)c2)CC1 |  |
| 100 to 500 nM | CNC(=O)c1ccc(-c2ccc(-c3ccnc(Nc4cccc(C(C)O)c4)n3)s2)cc1 (stereo not shown) |  |
| < 100 nM | CCN(CCC#N)S(=O)(=O)c1ccc(-c2ccnc(Nc3cccc(C)c3)n2)s1 | 1000 to 5000 nM |
| < 100 nM | O=C(NCc1ccccc1)c1ccc(-c2ccnc(Nc3ccc(CCO)cc3)n2)s1 | 1000 to 5000 nM |
